Experimental data as given in PubChem BioAssay AID1259407 (Chemical Carcinogenesis Research Information System (CCRIS), 2018).
Active and inactive are the calls of the source. The rule behind the calls is not given here.

Tested on: CCRIS mutagenicity, Ames/micronucleus/aberration tests
Experiment: CCRIS mutagenicity studies

In the case of O=C([O-])c1ccccn1.O=C([O-])c1ccccn1.O=C([O-])c1ccccn1.[Cr+3], the mutagenic call (End Point: In vivo chromosomal aberrations, Test System: Bone marrow cells, Species: Rat, Strain/Sex: Sprague-Dawley/Male and female, Route: Oral (gavage) once) is reported as “inactive; negative”, the mutagenic call (End Point: In vivo micronucleus, Test System: Bone marrow polychromatic erythrocytes, Species: Rat, Strain/Sex: F344/N / Male, Route: Oral) is reported as “inactive; negative” and the mutagenic call (Test System: AMES SALMONELLA TYPHIMURIUM, Strain/Indicator: TA98, Metabolic Activation: HAMSTER LIVER S-9, AROCLOR 1254, Method: STANDARD PLATE) is reported as “inactive; negative”. For the same molecule, the mutagenic call (Test System: AMES SALMONELLA TYPHIMURIUM, Strain/Indicator: TA98, Metabolic Activation: HAMSTER, LIVER, S-9, AROCLOR 1254, Method: STANDARD PLATE) was “inactive; negative”, the mutagenic call (Test System: AMES SALMONELLA TYPHIMURIUM, Strain/Indicator: TA98, Metabolic Activation: NONE, Method: STANDARD PLATE) was “inactive; negative” and the mutagenic call (Test System: AMES SALMONELLA TYPHIMURIUM, Strain/Indicator: TA98, Metabolic Activation: RAT LIVER S-9, AROCLOR 1254, Method: STANDARD PLATE) was “inactive; negative”. The mutagenic call (Test System: AMES SALMONELLA TYPHIMURIUM, Strain/Indicator: TA98, Metabolic Activation: RAT, LIVER, S-9, AROCLOR 1254, Method: STANDARD PLATE) was “inactive; negative”, the mutagenic call (Test System: AMES SALMONELLA TYPHIMURIUM, Strain/Indicator: TA100, Metabolic Activation: HAMSTER LIVER S-9, AROCLOR 1254, Method: STANDARD PLATE) was “inactive; negative” and the mutagenic call (Test System: AMES SALMONELLA TYPHIMURIUM, Strain/Indicator: TA100, Metabolic Activation: HAMSTER, LIVER, S-9, AROCLOR 1254, Method: STANDARD PLATE) was “inactive; negative”. For the same molecule, the mutagenic call (Test System: AMES SALMONELLA TYPHIMURIUM, Strain/Indicator: TA100, Metabolic Activation: NONE, Method: STANDARD PLATE) was “inactive; negative”, the mutagenic call (Test System: AMES SALMONELLA TYPHIMURIUM, Strain/Indicator: TA100, Metabolic Activation: RAT LIVER S-9, AROCLOR 1254, Method: STANDARD PLATE) was “inactive; negative” and the mutagenic call (Test System: AMES SALMONELLA TYPHIMURIUM, Strain/Indicator: TA100, Metabolic Activation: RAT, LIVER, S-9, AROCLOR 1254, Method: STANDARD PLATE) was “inactive; negative”. The mutagenic call (Test System: AMES SALMONELLA TYPHIMURIUM, Strain/Indicator: TA102, Metabolic Activation: HAMSTER LIVER S-9, AROCLOR 1254, Method: STANDARD PLATE) was “inactive; negative”, the mutagenic call (Test System: AMES SALMONELLA TYPHIMURIUM, Strain/Indicator: TA102, Metabolic Activation: NONE, Method: STANDARD PLATE) was “inactive; negative” and the mutagenic call (Test System: AMES SALMONELLA TYPHIMURIUM, Strain/Indicator: TA102, Metabolic Activation: RAT LIVER S-9, AROCLOR 1254, Method: STANDARD PLATE) was “inactive; negative”. The mutagenic call (Test System: AMES SALMONELLA TYPHIMURIUM, Strain/Indicator: TA1535, Metabolic Activation: HAMSTER LIVER S-9, AROCLOR 1254, Method: STANDARD PLATE) was “inactive; negative”, the mutagenic call (Test System: AMES SALMONELLA TYPHIMURIUM, Strain/Indicator: TA1535, Metabolic Activation: HAMSTER, LIVER, S-9, AROCLOR 1254, Method: STANDARD PLATE) was “inactive; negative” and the mutagenic call (Test System: AMES SALMONELLA TYPHIMURIUM, Strain/Indicator: TA1535, Metabolic Activation: NONE, Method: STANDARD PLATE) was “inactive; negative”. For the same molecule, the mutagenic call (Test System: AMES SALMONELLA TYPHIMURIUM, Strain/Indicator: TA1535, Metabolic Activation: RAT LIVER S-9, AROCLOR 1254, Method: STANDARD PLATE) was “inactive; negative”, the mutagenic call (Test System: AMES SALMONELLA TYPHIMURIUM, Strain/Indicator: TA1535, Metabolic Activation: RAT, LIVER, S-9, AROCLOR 1254, Method: STANDARD PLATE) was “inactive; negative” and the mutagenic call (Test System: AMES SALMONELLA TYPHIMURIUM, Strain/Indicator: TA1537, Metabolic Activation: HAMSTER LIVER S-9, AROCLOR 1254, Method: STANDARD PLATE) was “inactive; negative”. The mutagenic call (Test System: AMES SALMONELLA TYPHIMURIUM, Strain/Indicator: TA1537, Metabolic Activation: HAMSTER, LIVER, S-9, AROCLOR 1254, Method: STANDARD PLATE) was “inactive; negative”, the mutagenic call (Test System: AMES SALMONELLA TYPHIMURIUM, Strain/Indicator: TA1537, Metabolic Activation: NONE, Method: STANDARD PLATE) was “inactive; negative” and the mutagenic call (Test System: AMES SALMONELLA TYPHIMURIUM, Strain/Indicator: TA1537, Metabolic Activation: RAT LIVER S-9, AROCLOR 1254, Method: STANDARD PLATE) was “inactive; negative”. For the same molecule, the mutagenic call (Test System: AMES SALMONELLA TYPHIMURIUM, Strain/Indicator: TA1537, Metabolic Activation: RAT, LIVER, S-9, AROCLOR 1254, Method: STANDARD PLATE) was “inactive; negative”, the mutagenic call (Test System: Ames Salmonella typhimurium, Strain/Indicator: TA97, Metabolic Activation: Hamster, Liver, S-9, Aroclor 1254 (10 and 30%), Method: Preincubation) was “inactive; negative” and the mutagenic call (Test System: Ames Salmonella typhimurium, Strain/Indicator: TA97, Metabolic Activation: None, Method: Preincubation) was “inactive; negative”. For the same molecule, the mutagenic call (Test System: Ames Salmonella typhimurium, Strain/Indicator: TA97, Metabolic Activation: Rat, Liver, S-9, Aroclor 1254 (10 and 30%), Method: Preincubation) was “inactive; negative”, the mutagenic call (Test System: Ames Salmonella typhimurium, Strain/Indicator: TA98, Metabolic Activation: Hamster, Liver, S-9, Aroclor 1254 (10 and 30%), Method: Preincubation) was “inactive; negative” and the mutagenic call (Test System: Ames Salmonella typhimurium, Strain/Indicator: TA98, Metabolic Activation: None, Method: Preincubation) was “inactive; negative”. For the same molecule, the mutagenic call (Test System: Ames Salmonella typhimurium, Strain/Indicator: TA98, Metabolic Activation: Rat, Liver, S-9, Aroclor 1254 (10 and 30%), Method: Preincubation) was “inactive; negative”, the mutagenic call (Test System: Ames Salmonella typhimurium, Strain/Indicator: TA100, Metabolic Activation: Hamster, Liver, S-9, Aroclor 1254 (10 and 30%), Method: Preincubation) was “inactive; negative” and the mutagenic call (Test System: Ames Salmonella typhimurium, Strain/Indicator: TA100, Metabolic Activation: None, Method: Preincubation) was “inactive; negative”. The mutagenic call (Test System: Ames Salmonella typhimurium, Strain/Indicator: TA100, Metabolic Activation: Rat, Liver, S-9, Aroclor 1254 (10 and 30%), Method: Preincubation) was “inactive; negative”, the mutagenic call (Test System: Ames Salmonella typhimurium, Strain/Indicator: TA102, Metabolic Activation: Hamster, Liver, S-9, Aroclor 1254 (10 and 30%), Method: Preincubation) was “inactive; negative” and the mutagenic call (Test System: Ames Salmonella typhimurium, Strain/Indicator: TA102, Metabolic Activation: Hamster, Liver, S-9, Aroclor 1254 (30%), Method: Preincubation) was “inactive; negative”. For the same molecule, the mutagenic call (Test System: Ames Salmonella typhimurium, Strain/Indicator: TA102, Metabolic Activation: None, Method: Preincubation) was “inactive; negative”, the mutagenic call (Test System: Ames Salmonella typhimurium, Strain/Indicator: TA102, Metabolic Activation: Rat, Liver, S-9, Aroclor 1254 (10 and 30%), Method: Preincubation) was “inactive; negative” and the mutagenic call (Test System: Ames Salmonella typhimurium, Strain/Indicator: TA102, Metabolic Activation: Rat, Liver, S-9, Aroclor 1254 (30%), Method: Preincubation) was “inactive; negative”. The mutagenic call (Test System: Ames Salmonella typhimurium, Strain/Indicator: TA104, Metabolic Activation: Hamster, Liver, S-9, Aroclor 1254 (10 and 30%), Method: Preincubation) was “inactive; negative”, the mutagenic call (Test System: Ames Salmonella typhimurium, Strain/Indicator: TA104, Metabolic Activation: Hamster, Liver, S-9, Aroclor 1254 (30%), Method: Preincubation) was “inactive; negative” and the mutagenic call (Test System: Ames Salmonella typhimurium, Strain/Indicator: TA104, Metabolic Activation: None, Method: Preincubation) was “inactive; negative”. The mutagenic call (Test System: Ames Salmonella typhimurium, Strain/Indicator: TA104, Metabolic Activation: Rat, Liver, S-9, Aroclor 1254 (10 and 30%), Method: Preincubation) was “inactive; negative”, the mutagenic call (Test System: Ames Salmonella typhimurium, Strain/Indicator: TA104, Metabolic Activation: Rat, Liver, S-9, Aroclor 1254 (30%), Method: Preincubation) was “inactive; negative” and the mutagenic call (Test System: Ames Salmonella typhimurium, Strain/Indicator: TA1535, Metabolic Activation: Hamster, Liver, S-9, Aroclor 1254 (10 and 30%), Method: Preincubation) was “inactive; negative”. The mutagenic call (Test System: Ames Salmonella typhimurium, Strain/Indicator: TA1535, Metabolic Activation: None, Method: Preincubation) was “inactive; negative”, the mutagenic call (Test System: Ames Salmonella typhimurium, Strain/Indicator: TA1535, Metabolic Activation: Rat, Liver, S-9, Aroclor 1254 (10 and 30%), Method: Preincubation) was “inactive; negative” and the mutagenic call (Test System: CHINESE HAMSTER OVARY CELLS, Strain/Indicator: CHO CELLS (HPRT)/6-THIOGUANINE, Metabolic Activation: NONE, Method: STANDARD PLATE) was “active; positive”. For the same molecule, the mutagenic call (Test System: CHINESE HAMSTER OVARY CELLS, Strain/Indicator: CHO-K1/HPRT/6-THIOGUANINE, Metabolic Activation: NONE, Method: 5 HR EXPOSURE) was “inactive; negative”, the mutagenic call (Test System: CHINESE HAMSTER OVARY CELLS, Strain/Indicator: CHO-K1/HPRT/6-THIOGUANINE, Metabolic Activation: NONE, Method: 48 HR EXPOSURE) was “inactive; negative” and the mutagenic call (Test System: CHINESE HAMSTER OVARY CELLS, Strain/Indicator: CHO-K1/HPRT/6-THIOGUANINE, Metabolic Activation: RAT, LIVER, S-9, AROCLOR 1254, Method: 5 HR EXPOSURE) was “inactive; negative”.
